Measured values: ChEMBL document CHEMBL1134120, “Some 3-thioxo/alkylthio-1,2,4-triazoles with a substituted thiourea moiety as possible antimycobacterials” (Bioorg Med Chem Lett, 2001)
≈ marks a conversion by molar mass, not a printed value.

Experiments:
[1] = test system: Mycobacterium tuberculosis; test: Percent reduction of mycobacterial growth using Mycobacterium tuberculosis H37Rv at a concentration of 12.5 ug/mL; format: functional
[2] = test system: Mycobacterium tuberculosis; test: In vitro antituberculosis activity against Mycobacterium tuberculosis H37Rv using the BACTEC 12B medium using a micro dilution assay( MABA); format: functional
[3] = test system: Mycolicibacterium fortuitum; test: In vitro anti-mycobacterial activity expressed as minimum inhibitory concentration against Mycobacterium fortuitum ATCC 6841; format: functional
[4] = Ratio between EC90 and MIC was reported; format: functional
[5] = Tested in vitro for killing of Mycobacterium tuberculosis Erdman (ATCC 35801) in monolayers of mouse bone marrow macrophages and 90% reduction was reported using level 3 assay; format: functional; parameters: unit not given here
[6] = test system: Mycobacterium tuberculosis; test: Compound was evaluated for antituberculosis activity against Mycobacterium tuberculosis in level 2 assay; format: functional
Mus musculus = organism: Mus musculus; test: Tested in vitro for killing of Mycobacterium tuberculosis Erdman (ATCC 35801) in monolayers of mouse bone marrow macrophages and 99% reduction was reported using level 3 assay; format: functional; parameters: unit not given here
[7] = Selectivity index (IC50/MIC) was determined; format: functional
[8] = test system: Mycobacterium tuberculosis; test: Compound was evaluated for antituberculosis activity against Mycobacterium tuberculosis in level 2 assay (performed using BACTEC in which MIC of RMP was found as 0.125 […]); format: functional
[9] = test system: Mycobacterium tuberculosis; test: Concentration required for inhibition of growth of Mycobacterium tuberculosis in level 2 assay; format: functional, organism-based

Structure (SMILES)	inhibition at 12.5 µg/mL [1]	MIC [2]	MIC [3]	also measured
C=CCNC(=S)Nc1ccc(-c2nnc(SCc3ccc(Cl)cc3Cl)n2-c2ccccc2)cc1	63%	> 12.5 µg/mL	> 128 µg/mL	
CNC(=S)Nc1ccc(-c2n[nH]c(=S)n2C)cc1	93%	< 12.5 µg/mL	64 µg/mL (≈ 229 µM)	EC90/MIC [4]: < 0.0297; EC90 [5]: 0.371; MIC [6]: > 12.5 µg/mL; EC99 (Mus musculus): >100
CCNC(=S)Nc1ccc(-c2n[nH]c(=S)n2C)cc1	90%	< 12.5 µg/mL	64 µg/mL (≈ 218 µM)	Ratio [4]: < 0.0242; EC90 [5]: 0.303; MIC [6]: > 12.5 µg/mL; EC99 (Mus musculus): 48.65
Cn1c(S)nnc1-c1ccc(N/C(S)=N/C2CCCCC2)cc1	10%	> 12.5 µg/mL	32 µg/mL (≈ 92.1 µM)	
C=CC/N=C(\S)Nc1ccc(-c2nnc(S)n2C2CCCCC2)cc1	35%	> 12.5 µg/mL	32 µg/mL (≈ 85.7 µM)	
CO[C@H]1/C=C/O[C@@]2(C)Oc3c(C)c(O)c4c(O)c(c(/C=N/N5CCN(C)CC5)c(O)c4c3C2=O)NC(=O)/C(C)=C\C=C\[C@H](C)[C@H](O)[C@@H](C)[C@@H](O)[C@@H](C)[C@H](OC(C)=O)[C@@H]1C [RIFAMPIN]			0.25 µg/mL (≈ 0.304 µM)	EC90 [5]: 0.007; EC99 (Mus musculus): 0.451
CCNC(=S)Nc1ccc(-c2n[nH]c(=S)n2-c2ccccc2)cc1	17%	> 12.5 µg/mL	64 µg/mL (≈ 180 µM)	
C=CCNC(=S)Nc1ccc(-c2n[nH]c(=S)n2CC)cc1	89%	> 12.5 µg/mL	64 µg/mL (≈ 200 µM)	
C=CCNC(=S)Nc1ccc(-c2n[nH]c(=S)n2CC=C)cc1	71%	> 12.5 µg/mL	32 µg/mL (≈ 96.5 µM)	
Cn1c(-c2ccc(NC(=S)Nc3ccccc3)cc2)n[nH]c1=S	29%	> 12.5 µg/mL	64 µg/mL (≈ 187 µM)	
C=CCNC(=S)Nc1ccc(-c2n[nH]c(=S)n2CCc2ccccc2)cc1	6%	> 12.5 µg/mL	64 µg/mL (≈ 162 µM)	
S/C(=N\C1CCCCC1)Nc1ccc(-c2nnc(S)n2-c2ccccc2)cc1	13%	> 12.5 µg/mL	64 µg/mL (≈ 156 µM)	
C=CCNC(=S)Nc1ccc(-c2n[nH]c(=S)n2C)cc1	94%	12.5 µg/mL (≈ 40.9 µM)	64 µg/mL (≈ 210 µM)	Ratio [4]: < 0.0558; EC90 [5]: 0.698; MIC [6]: > 12.5 µg/mL; EC99 (Mus musculus): >100
S/C(=N\C1CCCCC1)Nc1ccc(-c2nnc(S)n2C2CCCCC2)cc1	12%	> 12.5 µg/mL	> 128 µg/mL	
NC[C@H]1O[C@H](O[C@H]2[C@H](O)[C@@H](O[C@H]3O[C@H](CO)[C@@H](O)[C@H](N)[C@H]3O)[C@H](N)C[C@@H]2N)[C@H](N)C[C@@H]1O [TOBRAMYCIN]			32 µg/mL (≈ 68.4 µM)	
S=C(Nc1ccccc1)Nc1ccc(-c2n[nH]c(=S)n2-c2ccccc2)cc1	13%	> 12.5 µg/mL	> 128 µg/mL	
C=CCn1c(-c2ccc(NC(=S)NC)cc2)n[nH]c1=S	0%	> 12.5 µg/mL	> 128 µg/mL	
CNC(=S)Nc1ccc(-c2nnc(SCc3ccccc3)n2C)cc1	85%	> 12.5 µg/mL	> 128 µg/mL	
C=CCNC(=S)Nc1ccc(-c2n[nH]c(=S)n2-c2ccccc2)cc1	12%	> 12.5 µg/mL	64 µg/mL (≈ 174 µM)	
C=CCn1c(-c2ccc(NC(=S)Nc3ccccc3)cc2)n[nH]c1=S	0%	> 12.5 µg/mL	32 µg/mL (≈ 87.1 µM)	
C=CCNC(=S)Nc1ccc(-c2nnc(SCc3ccc(Cl)cc3Cl)n2C)cc1	94%	< 12.5 µg/mL	> 128 µg/mL	Ratio [7]: > 1.6; MIC [8]: 6.25 µg/mL; IC50 [9]: > 10 µg/mL
CNC(=S)Nc1ccc(-c2n[nH]c(=S)n2-c2ccccc2)cc1	27%	> 12.5 µg/mL	64 µg/mL (≈ 187 µM)	
S=C(Nc1ccc(Cl)cc1)Nc1ccc(-c2n[nH]c(=S)n2-c2ccccc2)cc1	11%	> 12.5 µg/mL	64 µg/mL (≈ 146 µM)	
CCn1c(S)nnc1-c1ccc(N/C(S)=N/C2CCCCC2)cc1	10%	> 12.5 µg/mL	64 µg/mL (≈ 177 µM)	
